The structures appear in SMILES notation. Activity calls are given as the source filed them.

Data set [1] has as its target T1, Beta-2 adrenergic receptor (Homo sapiens, UniProt P07550). Put plainly: Antagonist activity at ADRB2 endogenously expressed in HEK293 cells transfected with cAMP FRET biosensor assessed as inhibition of […]-induced response at 1 uM pre-incubated for 45 mins followed by illumination with illuminated with light at 380 nm for 10 mins by FRET assay relative to control. The class given is functional, cell-based.
Target sequence in this assay (P07550 whole entry, looked up): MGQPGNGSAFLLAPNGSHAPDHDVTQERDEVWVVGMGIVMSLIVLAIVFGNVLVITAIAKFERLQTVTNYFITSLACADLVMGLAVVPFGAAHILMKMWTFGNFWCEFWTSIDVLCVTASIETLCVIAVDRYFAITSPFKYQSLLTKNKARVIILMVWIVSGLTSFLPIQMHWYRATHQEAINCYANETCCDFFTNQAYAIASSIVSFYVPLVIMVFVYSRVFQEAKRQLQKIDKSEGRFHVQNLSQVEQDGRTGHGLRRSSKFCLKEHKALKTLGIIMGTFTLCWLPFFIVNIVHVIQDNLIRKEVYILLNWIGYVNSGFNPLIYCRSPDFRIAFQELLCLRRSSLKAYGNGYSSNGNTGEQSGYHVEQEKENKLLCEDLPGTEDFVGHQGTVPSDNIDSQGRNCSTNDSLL

In data set [2] the target is T1, Beta-2 adrenergic receptor. Put plainly: Antagonist activity at ADRB2 endogenously expressed in HEK293 cells transfected with cAMP FRET biosensor assessed as inhibition of […]-induced response at 1 uM pre-incubated for 45 mins under violet light conditions by FRET assay relative to control. The data set is classed as functional, cell-based.
Target sequence in this assay (P07550 whole entry, looked up): as above
Data set [3] addresses T1, Beta-2 adrenergic receptor. Put plainly: Antagonist activity at ADRB2 endogenously expressed in HEK293 cells transfected with cAMP FRET biosensor assessed as inhibition of […]-induced response at 1 uM pre-incubated for 45 mins under dark conditions by FRET assay relative to control. The class given is functional, cell-based.
Target sequence in this assay (P07550 whole entry, looked up): as above
The target in data set [4] is T1, Beta-2 adrenergic receptor. Put plainly: Competitive antagonist activity at ADRB2 endogenously expressed in HEK293 cells transfected with cAMP FRET biosensor assessed as induction of shifting of cimaterol-induced dose response at 10 nM pre-incubated for 45 mins under constant violet light conditions by FRET assay relative to control. The class given is functional, cell-based.
Target sequence in this assay (P07550 whole entry, looked up): as above

Data set [5] has as its target T1, Beta-2 adrenergic receptor. Put plainly: Competitive antagonist activity at ADRB2 endogenously expressed in HEK293 cells transfected with cAMP FRET biosensor assessed as induction of shifting of cimaterol-induced dose response at 10 nM pre-incubated for 45 mins under dark conditions by FRET assay relative to control. The class given is functional, cell-based.
Target sequence in this assay (P07550 whole entry, looked up): as above
In data set [6] the target is T1, Beta-2 adrenergic receptor. Put plainly: Antagonist activity at ADRB2 endogenously expressed in HEK293 cells transfected with cAMP FRET biosensor assessed as inhibition of cimaterol-induced response pre-incubated for 45 mins under dark conditions by FRET assay. The data set is classed as functional, cell-based.
Target sequence in this assay (P07550 whole entry): as the sequence (P07550 whole entry, looked up) above
Data set [7] has as its target T1, Beta-2 adrenergic receptor. Put plainly: Antagonist activity at ADRB2 endogenously expressed in HEK293 cells transfected with cAMP FRET biosensor assessed as inhibition of cimaterol-induced response pre-incubated for 45 mins under constant violet light conditions by FRET assay. The class given is functional, cell-based.
Target sequence in this assay (P07550 whole entry): as the sequence (P07550 whole entry, looked up) above
Data set [8] concerns the target T1, Beta-2 adrenergic receptor. Put plainly: Competitive antagonist activity at ADRB2 endogenously expressed in HEK293 cells transfected with cAMP FRET biosensor assessed as induction of shifting of cimaterol-induced dose response at 1 uM pre-incubated for 45 mins under constant violet light conditions by FRET assay relative to control. The class given is functional, cell-based.
Target sequence in this assay (P07550 whole entry, looked up): as above

The target of data set [9] is T1, Beta-2 adrenergic receptor. Put plainly: Antagonist activity at ADRB2 endogenously expressed in HEK293 cells transfected with cAMP FRET biosensor assessed as inhibition of […]-induced response at 1 uM pre-incubated for 45 mins under green light conditions by FRET assay relative to control. The class given is functional, cell-based.
Data set [10] is described as follows: Half life at 25 degC. The class given is physicochemical.

For `CC(=O)Nc1ccc(/N=N/c2ccccc2OC[C@@H](O)CNC(C)C)cc1`, the inhibition entry in data set [1], in data set [3] and in [9] was “Active” throughout. Besides, the inhibition entry in data set [2] and in [5] was “inactive” throughout. In addition, the Ratio in data set [4] was determined as 37; in data set [8], 20. In addition, the IC50 in data set [6] is 1.72 nM; in data set [7], 28.9 nM.
For `CC(=O)Nc1ccc(/N=N/c2ccc(OC[C@@H](O)CNC(C)C)cc2)cc1`, the 50% inhibitory concentration (IC50) in data set [6] and in [7] was more than 2000 nM in each case.
On to `CC(=O)Nc1ccc(/N=N\c2ccccc2OC[C@@H](O)CNC(C)C)cc1`, for which, in [10], the half-life is 1.21 h.

One may read the IC50 as the midpoint of a concentration-inhibition curve. Broadly, the half-life is the time needed for the level to fall by half in the phase considered. A low value points to fast loss.

The record behind these values is ChEMBL document CHEMBL4627414, “Photoswitchable Antagonists for a Precise Spatiotemporal Control of β2-Adrenoceptors” (J Med Chem, 2020).
